The text below walks through data of PMC4201354 (The Journal of Organic Chemistry, 2014).

By Ki is commonly meant a dissociation constant, usually derived from enzyme kinetics or from competition with a known ligand.

In test [1] the target is yeast α-glucosidase. The settings on record: against yeast α-glucosidase; cited from earlier work.
Test [2] has as its target T1, Mtb GlgE (Mycobacterium tuberculosis, UniProt P9WQ17).
T1 sequence (P9WQ17 1-701): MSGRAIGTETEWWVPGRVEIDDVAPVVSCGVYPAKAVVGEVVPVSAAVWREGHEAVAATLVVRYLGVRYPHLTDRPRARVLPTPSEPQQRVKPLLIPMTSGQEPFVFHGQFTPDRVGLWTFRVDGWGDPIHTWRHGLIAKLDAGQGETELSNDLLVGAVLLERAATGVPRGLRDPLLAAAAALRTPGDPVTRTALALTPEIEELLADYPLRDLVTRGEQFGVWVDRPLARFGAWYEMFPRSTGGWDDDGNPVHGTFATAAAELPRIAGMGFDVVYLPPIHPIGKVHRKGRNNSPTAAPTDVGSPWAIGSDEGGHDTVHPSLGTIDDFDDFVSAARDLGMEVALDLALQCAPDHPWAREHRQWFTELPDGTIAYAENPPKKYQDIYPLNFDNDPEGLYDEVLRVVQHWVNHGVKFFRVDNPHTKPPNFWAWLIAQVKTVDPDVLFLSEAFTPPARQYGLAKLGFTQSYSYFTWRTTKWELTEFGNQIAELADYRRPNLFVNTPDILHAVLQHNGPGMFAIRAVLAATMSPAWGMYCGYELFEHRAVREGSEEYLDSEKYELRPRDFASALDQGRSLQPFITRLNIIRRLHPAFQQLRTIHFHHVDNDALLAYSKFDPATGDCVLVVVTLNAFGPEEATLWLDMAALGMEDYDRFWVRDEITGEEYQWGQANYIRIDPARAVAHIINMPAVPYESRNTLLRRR
The experiment in a line: GlgE-coupled enzyme assay utilizing PNP. It counts as biochemical.

In the case of 5-amino-5-deoxy-D-glucose [Compound 1], the Ki in test [1] is 6.3 µM.
`OC[C@H]1N[C@H](CO)[C@@H](O[C@H]2O[C@H](CO)[C@@H](O)[C@H](O)[C@H]2O)[C@@H]1O` [Compound 9, 2,5-dideoxy-3-O-α-D-glucopyranosyl-2,5-imino-D-mannitol] showed a Ki in test [2] of 237 ± 27 µM.
